Experimental data published in patent publication US20210238197A1, “NOVEL OXOQUINOLIZINE COMPOUNDS FOR THE TREATMENT AND PROPHYLAXIS OF BACTERIAL INFECTION” (Hoffmann-La Roche Inc., priority 2018, published 2021).
≈ marks a conversion by molar mass, not a printed value. Read-outs that look alike come from different tables or passages of the source.

Legend:
A. baumannii (ATCC17978) = assay: 50% growth inhibitory concentration (IC50) determination assay, A. baumannii; type: cell-based; conditions: Acinetobacter baumannii, ATCC17978; Iso-Sensitest broth, growth by OD 600 nm over 16 h; <0.098 = detection limit
Outline: (§1)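 Compounds two-fold diluted from 50 to 0.097 μM (final) in Iso-Sensitest broth, inoculum ~5×10^5 CFU/mL. Incubation at 35±2 °C with OD600 read every 20 min over 16 h to track growth.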

S. aureus (ATCC29213) = assay: 50% growth inhibitory concentration (IC50) determination assay, S. aureus; type: cell-based; conditions: Staphylococcus aureus, ATCC29213; Iso-Sensitest broth, growth by OD 600 nm over 16 h; <0.098 = detection limit
Outline: as §1

[1] = Lyophilisation solubility assay (LYSA); type: physicochemical; conditions: aqueous buffer, thermodynamic from solid; 0.05 M phosphate buffer, pH 6.5; <1.0 = detection limit
Procedure: The solubility of compounds of present invention was assessed by LYSA assay. Samples were prepared in duplicate from 10 mM DMSO stock solutions (20 μL) diluted in 30 μL pure DMSO. After evaporation of DMSO with a centrifugal vacuum evaporator, the residue was dissolved in 0.05 M phosphate buffer (150 μL, pH 6.5), which was stirred for one hour and shook for two hours. After one night, the solution was filtered using a microtiter filter plate. Then the filtrate and its 1/10 dilution were analyzed by HPLC-UV. In addition a four-point calibration curve was prepared from the 10 mM stock solutions and used for the solubility determination of the compounds.

[2] = tested on: K. pneumoniae (ATCC10031); assay: 50% growth inhibitory concentration (IC50) determination assay, K. pneumoniae; type: cell-based; conditions: Klebsiella pneumoniae, ATCC10031; Iso-Sensitest broth, growth by OD 600 nm over 16 h; <0.098 = detection limit
Outline: as §1

[3] = Cytotoxicity assay (HepG2, CellTiter-Blue); type: cell-based; conditions: human; HepG2 cells, 3 days treatment; >100 = detection limit
Procedure: The cytotoxicity of compounds of present invention was assessed by HepG2 assay. HepG2 cells (ATCC RB-8065™) were seeded into 96-well plates (1.2×10^4 cells per well) and treated with compounds for 3 days, cell viability was measured at day 3 post compound treatment using the CellTiter-Blue® Cell Viability Assay (Promega, Cat. No. G8082). […], of Cell titer blue buffer were added to each well of the cells, which were incubated for 3 hours at 37° C., and the fluorescence value was measured by a plate reader (Molecular Device SpectraMax M2). The CC50 value of each compound is plotted with GraphPad Prism using four parameter logistic equation.

[4] = tested on: multiple species and strains; assay: microbe, parasite or virus in culture; parameters: MIC S9 / MIC S7 / MIC S11 / MIC S8 / MIC S10: unit not given beside the values
Outline: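 Broth microdilution per CLSI M07-A10 in CAMHB, CAMHB+3% lysed horse blood or HTM. Inoculum was set to OD600 ~0.1, then diluted 1:280 (Gram-positive) or 1:400 (Gram-negative), and plates were incubated 18-24 h at 35±2° C in ambient air. MIC (μg/mL) is the lowest concentration giving no visible growth.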

CNc1cc(Cl)cc2c1[nH]c1ncc(-c3ccc4ccc(C(=O)O)c(=O)n4c3)c(N3CC[C@H]4CN(C)C[C@H]43)c12 (relative stereo) [Example 1.19, 7-[6-chloro-4-(cis-5-methyl-2,3,3a,4,6,6a-hexahydropyrrolo[2,3-c]pyrrol-1-yl)-8-(methylamino)-9H-pyrido[2,3-b]indol-3-yl]-4-oxo-quinolizine-3-carboxylic acid] showed an IC50 (A. baumannii (ATCC17978)) of under 98 nM, an IC50 (S. aureus (ATCC29213)) of 185 nM and a solubility thermodynamic [1] of 29 µg/mL (≈ 53.4 µM). For the same compound, the IC50 [2] was under 98 nM.

Compound CNc1cc(F)c(F)c2c1[nH]c1ncc(-c3cc(C)c4ccc(C(=O)O)c(=O)n4c3)c(N3CC[C@H]4CN(C)C[C@H]43)c12 (relative stereo) [Example 2.01, 7-(5,6-Difluoro-8-(methylamino)-4-(cis-5-methyl-2,3,3a,4,6,6a-hexahydropyrrolo[2,3-c]pyrrol-1-yl)-9H-pyrido[2,3-b]indol-3-yl)-9-methyl-4-oxo-4H-quinolizine-3-carboxylic acid] has an IC50 (A. baumannii (ATCC17978)) of under 98 nM, an IC50 (S. aureus (ATCC29213)) of under 98 nM and a solubility thermodynamic [1] of 41 µg/mL (≈ 73.4 µM). For the same compound, the IC50 [2] was under 98 nM.

Compound CNc1cc(F)c(F)c2c1[nH]c1ncc(-c3cc(F)c4ccc(C(=O)O)c(=O)n4c3)c(N3CC[C@H]4CN(C)C[C@H]43)c12 (relative stereo) [Example 2.02, 7-[4-[cis-5-methyl-2,3,3a,4,6,6a-hexahydropyrrolo[2,3-c]pyrrol-1-yl]-5,6-difluoro-8-(methylamino)-9H-pyrido[2,3-b]indol-3-yl]-9-fluoro-4-oxo-quinolizine-3-carboxylic acid] has an IC50 (A. baumannii (ATCC17978)) of under 98 nM, an IC50 (S. aureus (ATCC29213)) of 108 nM and a solubility thermodynamic [1] of 58 µg/mL (≈ 103 µM). It also gave an IC50 [2] of under 98 nM.

Compound CNc1cc(F)c(F)c2c1[nH]c1ncc(-c3ccc4c(CN(C)C)cc(C(=O)O)c(=O)n4c3)c(N3CC[C@H]4CN(C)C[C@H]43)c12 (relative stereo) [Example 2.03, 7-[4-[cis-5-methyl-2,3,3a,4,6,6a-hexahydropyrrolo[2,3-c]pyrrol-1-yl]-5,6-difluoro-8-(methylamino)-9H-pyrido[2,3-b]indol-3-yl]-1-[(dimethylamino)methyl]-4-oxo-quinolizine-3-carboxylic acid] has an IC50 (A. baumannii (ATCC17978)) of under 98 nM, an IC50 (S. aureus (ATCC29213)) of 194 nM and a solubility thermodynamic [1] of over 1060 µg/mL. It also gave an IC50 [2] of under 98 nM and a CC50 at 3 days [3] of 46400 nM.

With CNc1cc(F)c(F)c2c1[nH]c1ncc(-c3ccc4c(C(F)(F)F)cc(C(=O)O)c(=O)n4c3)c(N3CC[C@H]4CN(C)C[C@H]43)c12 (relative stereo) [Example 2.06, 7-[4-[cis-5-methyl-2,3,3a,4,6,6a-hexahydropyrrolo[2,3-c]pyrrol-1-yl]-5,6-difluoro-8-(methylamino)-9H-pyrido[2,3-b]indol-3-yl]-4-oxo-1-(trifluoromethyl)quinolizine-3-carboxylic acid] the solubility thermodynamic [1] was 7 µg/mL (≈ 11.4 µM).

CNc1cc(F)c(F)c2c1[nH]c1ncc(-c3ccc4c(CN5CCOCC5)cc(C(=O)O)c(=O)n4c3)c(N3CC[C@H]4CN(C)C[C@H]43)c12 (relative stereo) [Example 2.09, 7-[4-[cis-5-methyl-2,3,3a,4,6,6a-hexahydropyrrolo[2,3-c]pyrrol-1-yl]-5,6-difluoro-8-(methylamino)-9H-pyrido[2,3-b]indol-3-yl]-1-(morpholinomethyl)-4-oxo-quinolizine-3-carboxylic acid] gave an IC50 (A. baumannii (ATCC17978)) of under 98 nM, an IC50 (S. aureus (ATCC29213)) of 174 nM and a solubility thermodynamic [1] of 795 µg/mL (≈ 1240 µM). It also gave an IC50 [2] of under 98 nM and a CC50 at 3 days [3] of 86900 nM.

CNc1cc(F)c(F)c2c1[nH]c1ncc(-c3ccc4c(CN5CCCC5)cc(C(=O)O)c(=O)n4c3)c(N3CC[C@H]4CN(C)C[C@H]43)c12 (relative stereo) [Example 2.10, 7-[4-[cis-5-methyl-2,3,3a,4,6,6a-hexahydropyrrolo[2,3-c]pyrrol-1-yl]-5,6-difluoro-8-(methylamino)-9H-pyrido[2,3-b]indol-3-yl]-4-oxo-1-(pyrrolidin-1-ylmethyl)quinolizine-3-carboxylic acid] gave a solubility thermodynamic [1] of over 940 µg/mL and a CC50 at 3 days [3] of 89200 nM.

For CNc1cc(F)cc2c1[nH]c1ncc(-c3ccc4ccc(C(=O)O)c(=O)n4c3)c(N3C[C@H]4CCN(C)[C@H]4C3)c12 (single isomer, unassigned) [Example 3.01A], the IC50 (A. baumannii (ATCC17978)) was under 98 nM, the IC50 (S. aureus (ATCC29213)) was under 98 nM and the solubility thermodynamic [1] was 9 µg/mL (≈ 17.1 µM). The IC50 [2] was under 98 nM.

With CNc1cc(F)cc2c1[nH]c1ncc(-c3ccc4ccc(C(=O)O)c(=O)n4c3)c(N3C[C@@H]4CCN(C)[C@@H]4C3)c12 (single isomer, unassigned) [Example 3.01B] the IC50 (A. baumannii (ATCC17978)) was under 98 nM, the IC50 (S. aureus (ATCC29213)) was under 98 nM and the solubility thermodynamic [1] was 16 µg/mL (≈ 30.4 µM). It also gave an IC50 [2] of under 98 nM.

CNc1cc(F)cc2c1[nH]c1ncc(-c3ccc4ccc(C(=O)O)c(=O)n4c3)c(N3CC[C@H]4CN(C)C[C@H]43)c12 (single isomer, unassigned) [Example 3.02A] gave an IC50 (A. baumannii (ATCC17978)) of under 98 nM, an IC50 (S. aureus (ATCC29213)) of 102 nM and a solubility thermodynamic [1] of 559 µg/mL (≈ 1060 µM). It also gave an IC50 [2] of under 98 nM and a CC50 at 3 days [3] of 41300 nM.

For CNc1cc(F)cc2c1[nH]c1ncc(-c3ccc4ccc(C(=O)O)c(=O)n4c3)c(N3CC[C@@H]4CN(C)C[C@@H]43)c12 (single isomer, unassigned) [Example 3.02B], the IC50 (A. baumannii (ATCC17978)) was 483 nM, the IC50 (S. aureus (ATCC29213)) was 1280 nM and the solubility thermodynamic [1] was over 683 µg/mL. It also gave an IC50 [2] of under 98 nM.

In the case of CNc1cc(F)c(C#N)c2c1[nH]c1ncc(-c3ccc4ccc(C(=O)O)c(=O)n4c3)c(N3CC[C@H]4CCN(C)C4C3)c12 (stereo in doubt) [Example 1.17, 7-[4-[cis-1-methyl-3,3a,4,5,7,7a-hexahydro-2H-pyrrolo[2,3-c]pyridin-6-yl]-5-cyano-6-fluoro-8-(methylamino)-9H-pyrido[2,3-b]indol-3-yl]-4-oxo-quinolizine-3-carboxylic acid], the IC50 (A. baumannii (ATCC17978)) is reported as under 98 nM, the IC50 (S. aureus (ATCC29213)) is reported as 139 nM and the MIC ([4]; Acinetobacter baumannii, ATCC19606, read-out: MIC S1, A. baumannii ATCC 19606) is reported as 0.882 µg/mL (≈ 1.56 µM). For the same compound, the MIC ([4]; Acinetobacter baumannii, ATCC51432, read-out: MIC S2, A. baumannii ATCC 51432) was 0.882 µg/mL (≈ 1.56 µM), the MIC ([4]; Acinetobacter baumannii, ATCCBAA747, read-out: MIC S3, A. baumannii ATCC BAA-747) was 0.882 µg/mL (≈ 1.56 µM) and the “MIC S9” value ([4]; E. coli ATCC 35218) was 0.882. For the same compound, the MIC ([4]; Escherichia coli, ATCC25922, read-out: MIC S11, E. coli ATCC 25922) was 0.166 µg/mL (≈ 0.293 µM), the MIC ([4]; Escherichia coli, ATCCBAA2340, read-out: MIC S10, E. coli ATCC BAA-2340) was 0.882 µg/mL (≈ 1.56 µM) and the MIC ([4]; Klebsiella pneumoniae, ATCC10031, read-out: MIC S4, K. pneumoniae ATCC 10031) was 0.028 µg/mL (≈ 0.0495 µM). The MIC ([4]; Klebsiella pneumoniae, ATCC700603, read-out: MIC S5, K. pneumoniae ATCC 700603) was 3.54 µg/mL (≈ 6.25 µM), the MIC ([4]; Klebsiella pneumoniae, ATCCBAA2146, read-out: MIC S6, K. pneumoniae ATCC BAA-2146) was 3.54 µg/mL (≈ 6.25 µM) and the MIC ([4]; Pseudomonas aeruginosa, ATCC27853, read-out: MIC S7, P. aeruginosa ATCC 27853) was 0.882 µg/mL (≈ 1.56 µM). For the same compound, the MIC ([4]; Pseudomonas aeruginosa, ATCCBAA2113, read-out: MIC S8, P. aeruginosa ATCC BAA-2113) was 3.54 µg/mL (≈ 6.25 µM), the solubility thermodynamic [1] was 12 µg/mL (≈ 21.2 µM) and the IC50 [2] was under 98 nM.

Work on CNc1cc(F)cc2c1[nH]c1ncc(-c3ccc4ccc(C(=O)O)c(=O)n4c3)c(N3CCC4(C)CN(C)CC34)c12 (stereo not drawn) [Example 1.10, 7-[4-(3a,5-dimethyl-3,4,6,6a-tetrahydro-2H-pyrrolo[2,3-c]pyrrol-1-yl)-6-fluoro-8-(methylamino)-9H-pyrido[2,3-b]indol-3-yl]-4-oxo-quinolizine-3-carboxylic acid] yielded an IC50 (A. baumannii (ATCC17978)) of under 98 nM, an IC50 (S. aureus (ATCC29213)) of under 98 nM and a solubility thermodynamic [1] of 90 µg/mL (≈ 166 µM). For the same compound, the IC50 [2] was under 98 nM.

For CNc1cc(F)cc2c1[nH]c1ncc(-c3ccc4ccc(C(=O)O)c(=O)n4c3)c(N3CCO[C@H](CN(C)C)C3)c12 [Example 2.07, (R)-7-(4-(2-((dimethylamino)methyl)morpholino)-6-fluoro-8-(methylamino)-9H-pyrido[2,3-b]indol-3-yl)-4-oxo-4H-quinolizine-3-carboxylic acid], the IC50 (A. baumannii (ATCC17978)) was 242 nM, the IC50 (S. aureus (ATCC29213)) was 379 nM and the solubility thermodynamic [1] was 48 µg/mL (≈ 88.1 µM). The IC50 [2] was under 98 nM.

Compound CNc1cc(F)cc2c1[nH]c1ncc(-c3ccc4ccc(C(=O)O)c(=O)n4c3)c(N3CCO[C@@H](CN(C)C)C3)c12 [Example 2.08, (S)-7-(4-(2-((dimethylamino)methyl)morpholino)-6-fluoro-8-(methylamino)-9H-pyrido[2,3-b]indol-3-yl)-4-oxo-4H-quinolizine-3-carboxylic acid] has an IC50 (A. baumannii (ATCC17978)) of 132 nM, an IC50 (S. aureus (ATCC29213)) of 433 nM and a solubility thermodynamic [1] of 54 µg/mL (≈ 99.2 µM). It also gave an IC50 [2] of under 98 nM.
